Where “and” joins values, the source holds several entries; their conditions need not be identical. Equal values may be shown once.
Legend:
[1] = tested on: volunteer panelists (axilla); test: standard hot room thermal efficacy (sweat reduction), test product on one axilla vs control on the other; type: in vivo, human; details: for antiperspirant efficacy compared with conventional enhanced antiperspirant salt (EAZCH): in words, from Table 2 data
Source text: The above-described enhanced efficacy salt may be tested for thermal efficacy (i.e. hot room sweat reduction) using volunteer panelists in a standard hot room protocol. The test product (vehicle plus enhanced efficacy salt) is applied to one axilla and control product (vehicle only or vehicle plus standard efficacy antiperspirant salt) is applied to the other axilla. The above-described enhanced efficacy salt typically provides a sweat reduction of about 57–62% versus about 47–52% obtained with standard efficacy salt, when suspended as an 18–19% USP active in a liquid volatile silicone carrier vehicle. Also, a freshly prepared aqueous solution of the above-described enhanced efficacy salt (20% USP active) typically provides a sweat reduction of about 63–69% versus about 48–54% obtained with standard efficacy salt in aqueous solution at the same concentration.
The above-described high peak 5 enhanced efficacy salts of Example 1 are tested for thermal efficacy (i.e. hot room sweat reduction) using volunteer panelists in a standard hot room protocol. The test product is applied to one axilla and control product is applied to the other axilla in an AvB comparison. In all cases, the test product comprises vehicle (as described below) plus high peak 5 enhanced efficacy salt (E^5AZCH). The control product comprises vehicle plus conventional enhanced efficacy (high peak 4:3) antiperspirant salt (EAZCH), except where the vehicle is a clear gel formulation, in which case a standard efficacy salt (AZCH) is used because of the instability of the conventional enhanced salt in aqueous formulations. To counteract this instability, the formulation identified as “Aqueous” below, is freshly prepared with powdered EAZCH just prior to being tested. The results are reported as the average sweat reduction (“S.R.”) gain over the control (i.e. the absolute percentage point increase in sweat reduction over the control).

[2] = HPLC aluminum peak distribution after storage (stability of enhanced state); type: physicochemical; details: aqueous solution
Method: Throughout the specification reference to HPLC analysis means that chromatograms are obtained as follows: Salt solutions are evaluated for aluminum polymer distribution by HPLC at a concentration of about 10% (USP) Al—Zr salt. If the solution to be analyzed is at a higher salt concentration, it is diluted with sufficient water to bring the salt concentration to about 10%. A 1.0 μL sample is injected into a Waters U6K injector, then pumped through a 4.6 mm×500 mm column packed with Nucleosil 100-5 silica with pore size of 100 angstroms and particle size of 5 μm (Keystone Scientific Inc.) using a 0.01M aqueous nitric acid solution as the eluant. The flow rate of the mobile phase is controlled at 0.5 mL/min with an LDC/Milton Roy Constametric-II metering pump (ThermoQuest Inc.). HPLC profiles are recorded and processed with a computerized system that includes the Millennium 32 Chromatography Manager software from Waters Corp. A Waters 2410 differential refractometer is used as the refractive index detector. The HPLC profiles are read from left to right (higher to lower molecular weight). Following this technique, peak 3 typically appears at a retention time of about 11.0–12.0 minutes (Kd≅0.58–0.61), peak 4 typically appears at a retention time of about 11.9–12.9 minutes (Kd≅0.62–0.72), and peak 5 typically appears at a retention time of about 13.3–14.0 minutes (Kd≅0.83–0.91). […]

[3] = aqueous solution, 20% USP active (enhanced salt freshly prepared)
[4] = suspended as 18–19% USP active in liquid volatile silicone carrier vehicle

## aluminum-zirconium chlorohydrate [salt A]
[1]; listed as A
  antiperspirant efficacy compared with conventional enhanced antiperspirant salt (EAZCH): more efficacious
[1]; vehicle Roll-On (20.0% AP active), control EAZCH, listed as A
  Avg. S.R. Gain Over Control: 5.8 percentage point

## aluminum-zirconium chlorohydrate [salt C]
[1]; after storage of the clear gel at high temperature
  retention of efficacy on storage: maintains its high efficacy
[1]; formulated as clear gel
  antiperspirant efficacy compared with current commercial clear gel product (standard efficacy salt): substantially more efficacious
[1]; listed as C
  antiperspirant efficacy compared with conventional enhanced antiperspirant salt (EAZCH): more efficacious
[1]; vehicle Aqueous (20% USP AP active), control EAZCH freshly prepared, listed as C
  Avg. S.R. Gain Over Control: 4.2 percentage point
[1]; vehicle Clear Gel (23.5% AP active), control AZCH
  Avg. S.R. Gain Over Control: 15.9 percentage point
[1]; vehicle Clear Gel aged 3 months at 45° C., control AZCH
  Avg. S.R. Gain Over Control: 13.3 percentage point

## aluminum-zirconium chlorohydrate [salt D]
[1]; listed as D
  antiperspirant efficacy compared with conventional enhanced antiperspirant salt (EAZCH): more efficacious
[1]; vehicle Aqueous (20% USP AP active), control EAZCH freshly prepared, listed as D
  Avg. S.R. Gain Over Control: 5.9 percentage point and 4.6 percentage point
[1]; vehicle Roll-On (20.0% AP active), control EAZCH, listed as D
  Avg. S.R. Gain Over Control: 8.7 percentage point

## aluminum-zirconium chlorohydrate [salt E]
[1]; listed as E
  antiperspirant efficacy compared with conventional enhanced antiperspirant salt (EAZCH): just as efficacious
[1]; vehicle Aqueous (20% USP AP active), control EAZCH freshly prepared, listed as E
  Avg. S.R. Gain Over Control: 1.3 percentage point

## aluminum-zirconium chlorohydrate [salt F]
[1]; listed as F
  antiperspirant efficacy compared with conventional enhanced antiperspirant salt (EAZCH): more efficacious
[1]; vehicle Aqueous (20% USP AP active), control EAZCH freshly prepared, listed as F
  Avg. S.R. Gain Over Control: 4.5 percentage point
[1]; vehicle Solid (23.5% AP active), control EAZCH, listed as F
  Avg. S.R. Gain Over Control: 4.0 percentage point

## aluminum-zirconium chlorohydrate [salt G]
[1]; listed as G
  antiperspirant efficacy compared with conventional enhanced antiperspirant salt (EAZCH): just as efficacious
[1]; vehicle Solid (23.5% AP active), control EAZCH, listed as G
  Avg. S.R. Gain Over Control: 2.1 percentage point

## aluminum-zirconium chlorohydrate [salt H]
[1]; listed as H
  antiperspirant efficacy compared with conventional enhanced antiperspirant salt (EAZCH): just as efficacious
[1]; vehicle Aqueous (20% USP AP active), control EAZCH freshly prepared, listed as H
  Avg. S.R. Gain Over Control: 0.3 percentage point

## aluminum-zirconium chlorohydrate [salt J]
[1]; listed as J
  antiperspirant efficacy compared with conventional enhanced antiperspirant salt (EAZCH): more efficacious
[1]; vehicle Aqueous (20% USP AP active), control EAZCH freshly prepared, listed as J
  Avg. S.R. Gain Over Control: 4.3 percentage point

## aluminum-zirconium chlorohydrate [salt K]
[1]; listed as K
  antiperspirant efficacy compared with conventional enhanced antiperspirant salt (EAZCH): just as efficacious
[1]; vehicle Aqueous (20% USP AP active), control EAZCH freshly prepared, listed as K
  Avg. S.R. Gain Over Control: 1.7 percentage point

## aluminum-zirconium chlorohydrate-gly [AZCH, reference compound]
[1]; [3]
  sweat reduction: 48–54%
[1]; [4]
  sweat reduction: 47–52%

## aluminum-zirconium octachlorohydrate-gly [salt B]
[1]
  antiperspirant efficacy compared with conventional enhanced antiperspirant salt (EAZCH): more efficacious
[1]; stored as concentrated aqueous solution for 1.5 years
  retention of efficacy on storage: retains its superior efficacy
[1]; vehicle Aqueous, aged 1.5 years, control EAZCH
  Avg. S.R. Gain Over Control: 7.0 percentage point

## aluminum-zirconium tetrachlorohydrate [EAZCH, reference compound]
[1]; [3]
  sweat reduction: 63–69%
[1]; [4]
  sweat reduction: 57–62%
[2]
  stability of enhanced state (peak 4:3 ratio) in aqueous form: peak 4:3 ratio deteriorates very quickly

Source: US6991780B2, “Aluminum-zirconium antiperspirant salts with low M:CI ratio” (The Gillette Company, priority 2000, dated 2006)
